In this assay the target is T1, Tissue alpha-L-fucosidase (Homo sapiens, UniProt P04066).
T1 sequence (P04066 whole entry): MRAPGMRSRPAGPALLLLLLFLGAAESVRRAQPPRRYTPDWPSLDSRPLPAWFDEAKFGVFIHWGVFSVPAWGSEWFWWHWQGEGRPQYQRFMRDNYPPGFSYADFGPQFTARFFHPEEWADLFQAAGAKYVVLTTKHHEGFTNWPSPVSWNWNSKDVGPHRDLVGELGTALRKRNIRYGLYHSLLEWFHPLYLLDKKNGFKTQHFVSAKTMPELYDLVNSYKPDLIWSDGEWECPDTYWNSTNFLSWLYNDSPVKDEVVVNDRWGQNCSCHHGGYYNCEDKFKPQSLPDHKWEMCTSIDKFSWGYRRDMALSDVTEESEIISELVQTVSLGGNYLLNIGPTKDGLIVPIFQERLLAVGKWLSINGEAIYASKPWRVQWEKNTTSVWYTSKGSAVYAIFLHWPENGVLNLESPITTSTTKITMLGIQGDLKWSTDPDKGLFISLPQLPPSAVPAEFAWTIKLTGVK
Briefly: Inhibitory activity against alpha-L-fucosidase in human placenta at PH of 6.5; Mixed Inhibition type.

One may read the Ki as a dissociation constant, usually derived from enzyme kinetics or from competition with a known ligand. Read a high Ki as a looser hold on the target. `CC(=O)NCSC1OC(C)C(O)C(O)C1O` (stereo unspecified) displayed an inhibition constant Ki of 3.9 µM.
